# Experimental data from ChEMBL document CHEMBL1201862, “PubChem BioAssay data set” (2004).
# Structures can show the parent of a compound that is named as a salt. Active and inactive are the calls of the source.
# Tests used:
# [1] = molecular target: T1, Oxysterols receptor LXR-beta (Homo sapiens, UniProt P55055); type: functional, cell-based;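 also: Cell-based luminescence dose-response assay of agonist activity at LXR, run as a confirmatory counterscreen to a daf-12 agonist screen; HEK293 cells with Gal4-LXR fusion and GAL4-driven luciferase reporter; agonist potency from rising luciferase signal of a Gal4-LXR reporter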
# T1 sequence (P55055 whole entry): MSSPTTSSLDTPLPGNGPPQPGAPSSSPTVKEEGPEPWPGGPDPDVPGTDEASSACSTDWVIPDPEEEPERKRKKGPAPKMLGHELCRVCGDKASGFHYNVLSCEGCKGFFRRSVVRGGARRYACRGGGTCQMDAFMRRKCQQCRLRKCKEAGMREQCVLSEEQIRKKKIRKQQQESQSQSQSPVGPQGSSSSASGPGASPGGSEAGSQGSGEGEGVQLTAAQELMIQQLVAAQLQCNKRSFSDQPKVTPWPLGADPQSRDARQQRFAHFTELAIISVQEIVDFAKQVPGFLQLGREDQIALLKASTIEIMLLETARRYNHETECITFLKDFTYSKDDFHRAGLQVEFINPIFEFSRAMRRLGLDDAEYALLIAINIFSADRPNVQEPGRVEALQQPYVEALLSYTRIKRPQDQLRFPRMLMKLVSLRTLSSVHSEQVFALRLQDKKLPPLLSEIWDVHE
# Protein skinhead-1 = molecular target: T2, Protein skinhead-1 (Caenorhabditis elegans, UniProt P34707); type: functional
# T2 sequence (P34707 whole entry): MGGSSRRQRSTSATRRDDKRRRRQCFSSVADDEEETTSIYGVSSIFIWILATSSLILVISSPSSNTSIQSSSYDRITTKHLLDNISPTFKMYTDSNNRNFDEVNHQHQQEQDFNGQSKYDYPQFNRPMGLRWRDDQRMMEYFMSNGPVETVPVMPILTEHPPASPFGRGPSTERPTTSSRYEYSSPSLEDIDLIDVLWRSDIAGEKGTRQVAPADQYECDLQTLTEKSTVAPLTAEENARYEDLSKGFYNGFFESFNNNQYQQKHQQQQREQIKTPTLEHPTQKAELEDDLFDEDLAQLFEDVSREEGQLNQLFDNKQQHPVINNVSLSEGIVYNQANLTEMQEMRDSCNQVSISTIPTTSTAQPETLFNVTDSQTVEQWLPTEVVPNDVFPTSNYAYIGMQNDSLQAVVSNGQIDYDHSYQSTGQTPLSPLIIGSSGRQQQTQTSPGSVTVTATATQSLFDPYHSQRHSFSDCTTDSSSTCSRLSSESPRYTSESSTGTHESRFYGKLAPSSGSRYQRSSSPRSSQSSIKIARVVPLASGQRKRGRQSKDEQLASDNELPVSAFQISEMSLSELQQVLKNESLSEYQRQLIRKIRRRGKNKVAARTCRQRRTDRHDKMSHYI
# [2] = molecular target: T3, Heat shock factor protein 1 (Mus musculus, UniProt P38532); assay: decrease of HSF1-responsive luciferase luminescence – cell-based, NIH3T3, dose retest, confirmation (AID 2382); type: functional;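 also: NIH3T3 fibroblasts with HSF1-driven luciferase reporter stressed by proteasome inhibitor MG132; luminescence from HSF1-driven luciferase expression after 8 hours of MG132 stress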
# T3 sequence (P38532 whole entry): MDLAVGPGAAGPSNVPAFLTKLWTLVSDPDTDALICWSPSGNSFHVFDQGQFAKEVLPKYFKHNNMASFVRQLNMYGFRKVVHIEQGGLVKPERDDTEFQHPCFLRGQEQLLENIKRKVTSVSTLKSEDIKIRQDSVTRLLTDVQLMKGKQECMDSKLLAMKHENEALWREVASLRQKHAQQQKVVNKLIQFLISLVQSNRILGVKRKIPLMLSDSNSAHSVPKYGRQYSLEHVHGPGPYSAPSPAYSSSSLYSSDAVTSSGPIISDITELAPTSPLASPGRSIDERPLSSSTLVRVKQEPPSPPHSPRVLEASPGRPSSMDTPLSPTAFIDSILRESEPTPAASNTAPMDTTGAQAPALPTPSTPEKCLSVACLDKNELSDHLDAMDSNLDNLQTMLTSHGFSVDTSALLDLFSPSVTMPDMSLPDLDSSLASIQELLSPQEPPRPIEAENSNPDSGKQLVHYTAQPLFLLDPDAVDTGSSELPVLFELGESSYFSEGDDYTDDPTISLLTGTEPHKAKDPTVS
# [3] = molecular target: T4, COUP transcription factor 2 (Homo sapiens, UniProt P24468); assay: Luminescence-based cell-based high throughput dose response assay to identify inhibitors of COUP-TFII (NR2F2).; type: functional;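 also: HEK293 cells transiently cotransfected with COUP-TFII expression vector and reporter; luciferase reporter luminescence driven by COUP-TFII from the pX2-168 reporter plasmid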
# T4 sequence (P24468 whole entry): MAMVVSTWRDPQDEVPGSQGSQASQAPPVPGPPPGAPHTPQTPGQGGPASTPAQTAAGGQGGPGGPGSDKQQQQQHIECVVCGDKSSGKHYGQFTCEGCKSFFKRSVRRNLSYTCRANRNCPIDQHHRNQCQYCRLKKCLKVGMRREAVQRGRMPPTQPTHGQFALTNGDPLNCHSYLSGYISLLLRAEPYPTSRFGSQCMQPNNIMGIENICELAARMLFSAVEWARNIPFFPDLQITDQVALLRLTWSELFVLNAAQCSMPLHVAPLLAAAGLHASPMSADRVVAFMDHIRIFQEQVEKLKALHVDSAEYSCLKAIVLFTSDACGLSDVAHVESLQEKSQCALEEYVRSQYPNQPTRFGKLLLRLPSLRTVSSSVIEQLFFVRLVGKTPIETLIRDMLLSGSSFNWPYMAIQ
# [4] = molecular target: T5, 1-phosphatidylinositol 4,5-bisphosphate phosphodiesterase gamma-1 (Homo sapiens, UniProt P19174); assay: Counterscreen for inhibitors of phospholipase C isozymes (PLC-B3): Fluorescence-based biochemical high throughput dose response assay to identify inhibitors of phospholipase C isozymes (PLC-gamma1).
# T5 sequence (P19174 whole entry): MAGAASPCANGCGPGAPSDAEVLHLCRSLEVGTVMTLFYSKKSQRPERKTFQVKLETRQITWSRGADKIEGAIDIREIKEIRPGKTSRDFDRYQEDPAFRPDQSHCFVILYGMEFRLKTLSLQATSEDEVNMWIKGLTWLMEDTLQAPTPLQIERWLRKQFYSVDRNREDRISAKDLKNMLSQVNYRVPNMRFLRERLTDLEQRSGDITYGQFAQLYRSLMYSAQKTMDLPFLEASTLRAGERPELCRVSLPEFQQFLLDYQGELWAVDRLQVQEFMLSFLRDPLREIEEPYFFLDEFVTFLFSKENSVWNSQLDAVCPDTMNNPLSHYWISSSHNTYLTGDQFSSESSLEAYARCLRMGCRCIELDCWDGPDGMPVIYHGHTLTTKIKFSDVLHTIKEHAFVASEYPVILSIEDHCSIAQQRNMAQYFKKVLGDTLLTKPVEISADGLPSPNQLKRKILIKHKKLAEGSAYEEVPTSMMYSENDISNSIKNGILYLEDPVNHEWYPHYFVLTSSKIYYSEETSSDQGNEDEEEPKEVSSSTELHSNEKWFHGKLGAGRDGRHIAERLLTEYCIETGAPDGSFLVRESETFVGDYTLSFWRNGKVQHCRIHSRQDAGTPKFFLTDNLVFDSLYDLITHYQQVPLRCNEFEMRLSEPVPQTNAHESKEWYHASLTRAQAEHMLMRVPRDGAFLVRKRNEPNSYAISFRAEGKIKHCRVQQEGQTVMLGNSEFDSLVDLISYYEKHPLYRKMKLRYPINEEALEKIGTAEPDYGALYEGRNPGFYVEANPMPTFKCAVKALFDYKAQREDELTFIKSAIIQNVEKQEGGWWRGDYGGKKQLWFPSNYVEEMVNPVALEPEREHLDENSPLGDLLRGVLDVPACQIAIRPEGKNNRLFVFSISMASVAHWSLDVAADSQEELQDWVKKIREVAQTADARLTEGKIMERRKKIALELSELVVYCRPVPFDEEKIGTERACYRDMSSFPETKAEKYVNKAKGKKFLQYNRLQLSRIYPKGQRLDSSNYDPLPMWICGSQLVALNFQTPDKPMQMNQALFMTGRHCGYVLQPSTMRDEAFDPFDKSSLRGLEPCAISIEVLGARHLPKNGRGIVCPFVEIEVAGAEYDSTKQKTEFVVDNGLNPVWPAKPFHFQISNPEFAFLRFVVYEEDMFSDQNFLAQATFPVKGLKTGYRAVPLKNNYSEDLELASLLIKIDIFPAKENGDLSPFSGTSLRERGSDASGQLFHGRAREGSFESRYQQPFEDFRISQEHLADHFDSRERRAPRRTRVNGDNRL
# [5] = molecular target: T6, 1-phosphatidylinositol 4,5-bisphosphate phosphodiesterase beta-3 (Homo sapiens, UniProt Q01970); assay: Fluorescence-based biochemical high throughput dose response assay to identify inhibitors of phospholipase C isozymes (PLC-B3).
# T6 sequence (Q01970 whole entry): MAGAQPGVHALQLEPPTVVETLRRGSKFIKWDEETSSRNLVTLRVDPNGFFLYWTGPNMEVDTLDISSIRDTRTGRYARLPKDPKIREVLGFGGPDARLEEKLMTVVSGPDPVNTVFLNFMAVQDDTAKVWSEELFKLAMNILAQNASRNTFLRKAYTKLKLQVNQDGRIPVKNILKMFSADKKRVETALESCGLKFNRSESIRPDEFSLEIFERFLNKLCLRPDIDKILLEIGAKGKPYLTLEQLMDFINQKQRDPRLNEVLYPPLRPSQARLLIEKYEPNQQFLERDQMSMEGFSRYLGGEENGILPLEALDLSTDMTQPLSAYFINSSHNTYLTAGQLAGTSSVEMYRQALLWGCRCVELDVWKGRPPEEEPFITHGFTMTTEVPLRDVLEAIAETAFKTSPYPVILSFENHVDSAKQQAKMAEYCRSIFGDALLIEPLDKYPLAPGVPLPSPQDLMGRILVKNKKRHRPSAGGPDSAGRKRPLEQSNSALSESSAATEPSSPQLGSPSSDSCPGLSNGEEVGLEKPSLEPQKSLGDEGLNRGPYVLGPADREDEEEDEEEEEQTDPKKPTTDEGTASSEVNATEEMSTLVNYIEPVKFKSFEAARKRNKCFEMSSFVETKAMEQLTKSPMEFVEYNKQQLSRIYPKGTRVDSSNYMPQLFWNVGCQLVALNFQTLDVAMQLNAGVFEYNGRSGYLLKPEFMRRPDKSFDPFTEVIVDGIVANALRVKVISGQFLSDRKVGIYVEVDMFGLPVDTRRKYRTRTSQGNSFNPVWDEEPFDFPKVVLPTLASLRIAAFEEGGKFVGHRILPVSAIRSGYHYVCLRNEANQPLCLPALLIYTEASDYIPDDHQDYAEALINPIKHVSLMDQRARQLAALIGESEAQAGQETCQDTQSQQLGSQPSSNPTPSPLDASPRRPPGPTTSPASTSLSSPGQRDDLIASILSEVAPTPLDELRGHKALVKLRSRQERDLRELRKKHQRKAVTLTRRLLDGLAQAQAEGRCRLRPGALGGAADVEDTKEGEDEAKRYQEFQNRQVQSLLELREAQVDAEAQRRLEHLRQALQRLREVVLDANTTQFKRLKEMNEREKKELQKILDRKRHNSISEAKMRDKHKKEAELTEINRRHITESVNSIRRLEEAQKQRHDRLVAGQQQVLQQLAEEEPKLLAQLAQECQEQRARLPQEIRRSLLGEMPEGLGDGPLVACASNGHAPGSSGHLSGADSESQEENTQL
# Cytochrome P450 1A2 = molecular target: T7, Cytochrome P450 1A2 (Homo sapiens, UniProt P05177);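 also: PubChem cytochrome P450 panel assay, CYP1A2 panel member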
# T7 sequence (P05177 whole entry): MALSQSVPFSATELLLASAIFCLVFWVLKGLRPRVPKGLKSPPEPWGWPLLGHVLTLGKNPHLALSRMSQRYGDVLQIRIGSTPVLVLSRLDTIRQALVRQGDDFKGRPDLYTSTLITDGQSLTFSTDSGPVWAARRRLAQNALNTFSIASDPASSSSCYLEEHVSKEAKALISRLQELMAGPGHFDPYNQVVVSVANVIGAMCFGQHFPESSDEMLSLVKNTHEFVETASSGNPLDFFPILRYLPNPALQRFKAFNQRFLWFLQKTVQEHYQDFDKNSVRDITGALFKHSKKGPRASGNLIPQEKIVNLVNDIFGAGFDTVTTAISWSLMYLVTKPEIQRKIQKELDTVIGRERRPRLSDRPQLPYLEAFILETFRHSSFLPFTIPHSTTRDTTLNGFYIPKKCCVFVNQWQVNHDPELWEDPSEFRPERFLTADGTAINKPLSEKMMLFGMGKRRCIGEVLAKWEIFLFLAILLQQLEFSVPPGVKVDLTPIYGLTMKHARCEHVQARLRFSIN
# [6] = molecular target: Voltage-dependent T-type calcium channel subunit alpha-1H (Homo sapiens, UniProt O95180); type: functional;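 also: channel activity triggered by adding a high calcium stimulation buffer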
# Sequence of Voltage-dependent T-type calcium channel subunit alpha-1H (O95180 whole entry): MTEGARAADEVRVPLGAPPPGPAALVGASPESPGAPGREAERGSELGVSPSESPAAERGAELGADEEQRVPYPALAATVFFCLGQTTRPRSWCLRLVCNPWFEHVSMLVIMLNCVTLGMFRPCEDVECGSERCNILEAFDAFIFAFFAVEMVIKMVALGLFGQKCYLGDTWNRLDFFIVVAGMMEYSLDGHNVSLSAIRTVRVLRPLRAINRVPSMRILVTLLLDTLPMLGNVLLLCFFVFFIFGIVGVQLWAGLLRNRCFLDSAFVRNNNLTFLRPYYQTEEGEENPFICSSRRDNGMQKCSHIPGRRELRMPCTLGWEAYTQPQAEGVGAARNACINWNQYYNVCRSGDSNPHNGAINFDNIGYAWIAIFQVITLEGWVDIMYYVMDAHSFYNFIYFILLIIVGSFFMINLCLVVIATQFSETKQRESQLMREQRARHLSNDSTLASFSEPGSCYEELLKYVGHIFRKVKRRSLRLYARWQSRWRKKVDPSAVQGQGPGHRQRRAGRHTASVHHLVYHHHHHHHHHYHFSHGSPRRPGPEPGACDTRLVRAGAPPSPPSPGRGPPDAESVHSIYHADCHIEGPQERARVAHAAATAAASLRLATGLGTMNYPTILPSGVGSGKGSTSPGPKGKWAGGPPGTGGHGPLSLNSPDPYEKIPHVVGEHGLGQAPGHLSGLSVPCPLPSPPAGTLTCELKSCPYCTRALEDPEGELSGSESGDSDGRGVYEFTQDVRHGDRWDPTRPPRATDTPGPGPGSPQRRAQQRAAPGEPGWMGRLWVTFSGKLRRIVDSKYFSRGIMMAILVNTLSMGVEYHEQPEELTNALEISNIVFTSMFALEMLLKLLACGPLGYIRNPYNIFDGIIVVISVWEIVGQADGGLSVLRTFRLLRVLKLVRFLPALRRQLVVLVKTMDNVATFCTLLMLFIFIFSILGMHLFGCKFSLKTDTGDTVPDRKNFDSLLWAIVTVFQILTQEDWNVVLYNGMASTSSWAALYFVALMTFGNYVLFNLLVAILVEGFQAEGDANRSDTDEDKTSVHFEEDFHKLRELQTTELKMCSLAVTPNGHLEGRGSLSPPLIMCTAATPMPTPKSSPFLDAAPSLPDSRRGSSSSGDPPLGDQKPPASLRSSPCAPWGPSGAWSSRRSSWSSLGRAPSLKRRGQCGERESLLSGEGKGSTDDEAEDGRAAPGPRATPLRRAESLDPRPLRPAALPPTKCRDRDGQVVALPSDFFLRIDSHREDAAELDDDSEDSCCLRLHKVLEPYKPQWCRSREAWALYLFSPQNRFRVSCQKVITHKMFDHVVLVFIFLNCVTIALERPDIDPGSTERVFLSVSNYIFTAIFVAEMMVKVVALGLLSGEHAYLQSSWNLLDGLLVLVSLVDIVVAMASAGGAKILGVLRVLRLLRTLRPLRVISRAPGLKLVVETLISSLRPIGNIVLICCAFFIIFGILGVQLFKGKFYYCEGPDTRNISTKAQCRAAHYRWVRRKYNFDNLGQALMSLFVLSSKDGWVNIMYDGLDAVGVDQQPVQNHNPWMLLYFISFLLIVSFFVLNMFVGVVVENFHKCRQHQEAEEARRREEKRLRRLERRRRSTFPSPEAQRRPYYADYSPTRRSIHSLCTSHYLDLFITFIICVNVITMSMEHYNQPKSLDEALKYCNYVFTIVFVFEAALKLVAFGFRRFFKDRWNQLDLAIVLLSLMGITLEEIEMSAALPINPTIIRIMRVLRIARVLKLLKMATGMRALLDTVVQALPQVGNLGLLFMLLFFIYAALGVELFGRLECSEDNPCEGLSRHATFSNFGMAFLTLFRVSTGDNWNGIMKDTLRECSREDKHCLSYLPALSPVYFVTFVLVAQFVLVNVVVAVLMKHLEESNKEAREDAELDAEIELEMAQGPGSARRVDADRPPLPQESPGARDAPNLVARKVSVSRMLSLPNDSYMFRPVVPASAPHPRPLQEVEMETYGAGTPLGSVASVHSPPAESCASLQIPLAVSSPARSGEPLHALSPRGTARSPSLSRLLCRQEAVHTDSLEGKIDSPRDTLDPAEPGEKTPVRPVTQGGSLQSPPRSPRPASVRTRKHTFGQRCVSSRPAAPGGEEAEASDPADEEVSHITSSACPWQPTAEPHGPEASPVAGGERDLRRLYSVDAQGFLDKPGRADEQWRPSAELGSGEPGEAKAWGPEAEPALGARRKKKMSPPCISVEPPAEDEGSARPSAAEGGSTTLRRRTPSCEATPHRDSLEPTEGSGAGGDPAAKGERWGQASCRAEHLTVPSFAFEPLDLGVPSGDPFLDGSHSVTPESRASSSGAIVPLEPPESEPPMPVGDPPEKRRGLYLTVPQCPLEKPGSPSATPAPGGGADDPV
# [7] = toxicity to human hepatoma HepG2 cells – cell-based, cherry-picked samples, cytotoxicity control, dose response (AID 1159577); type: functional
# [8] = molecular target: T8, Polyadenylate-binding protein 1 (Homo sapiens, UniProt P11940); assay: MLLE binding blockers, Cy5 peptide tracer – biochemical, fluorescence polarization, Cy5-PAM2 peptide, secondary, miRNA deadenylation inhibitor project, dose response (AID 602260); type: functional; conditions: read-out: IC50_Mean
# T8 sequence (P11940 whole entry): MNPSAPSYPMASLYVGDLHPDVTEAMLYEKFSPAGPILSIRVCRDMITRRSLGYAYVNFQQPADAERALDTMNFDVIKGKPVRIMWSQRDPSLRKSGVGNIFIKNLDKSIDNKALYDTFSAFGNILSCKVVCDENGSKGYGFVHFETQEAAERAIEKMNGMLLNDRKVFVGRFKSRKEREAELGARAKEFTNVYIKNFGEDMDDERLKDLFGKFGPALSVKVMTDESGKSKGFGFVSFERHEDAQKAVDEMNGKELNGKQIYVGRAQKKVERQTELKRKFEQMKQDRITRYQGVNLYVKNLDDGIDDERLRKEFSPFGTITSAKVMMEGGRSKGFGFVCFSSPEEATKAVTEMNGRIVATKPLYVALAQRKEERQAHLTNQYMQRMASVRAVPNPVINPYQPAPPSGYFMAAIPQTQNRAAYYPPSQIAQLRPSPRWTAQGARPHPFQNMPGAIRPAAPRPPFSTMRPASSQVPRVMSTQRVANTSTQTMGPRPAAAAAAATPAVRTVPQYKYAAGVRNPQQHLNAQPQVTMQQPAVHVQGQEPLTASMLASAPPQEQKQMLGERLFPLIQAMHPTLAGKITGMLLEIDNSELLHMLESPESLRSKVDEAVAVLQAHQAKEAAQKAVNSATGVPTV
# [9] = IC50 of insulin release inhibition, rat insulinoma INS-1E line, 5 mM glucose, cell-based (AID 1117331); type: functional
# [10] = molecular target: T8, Polyadenylate-binding protein 1; assay: MLLE domain peptide-binding blockers, IC50 – biochemical, fluorescence polarization, FITC-PAM2 peptide, dose response (AID 602259); type: functional; conditions: read-out: IC50_Mean
compound,measurement,setting,value
O=c1c(=NNc2ccccc2Cl)c(=O)c2ccccc12,EC50,cells,> 67.5 µM (inactive)
same,EC50,[1],> 67.5 µM (inactive)
c1ccc(-c2csc(Nc3ccccn3)n2)cc1,EC50,cells,> 67.5 µM (inactive)
same,EC50,[1],> 67.5 µM (inactive)
same,IC50,Protein skinhead-1,18 µM (active)
O=C1NC(=O)C(=NNc2ccc3c(c2)OCCO3)C(=O)N1,EC50,[2],< 0.16 µM (active)
same,IC50,[3],6.75 µM (active)
CC(C)Oc1ccc(C(=O)Nc2ccc(NC(=O)c3ccco3)c(Cl)c2)cc1,IC50,[4],> 122 µM (inactive)
same,IC50,[5],> 122 µM (inactive)
same,AC50,Cytochrome P450 1A2,22.4 µM (inconclusive)
c1ccc(Nc2nc(-c3cccs3)cs2)nc1,EC50,[6],9.21 µM (active)
same,EC50,cells,> 67.5 µM (inactive)
same,EC50,[1],> 67.5 µM (inactive)
same,IC50,Protein skinhead-1,15.6 µM (active)
CCNC(=O)Nc1ccc2c(c1)C(=O)N(C)[C@H]1CC[C@H](CC(=O)N[C@H](C)c3ccccc3)O[C@@H]1CO2,IC50,[4],68.8 µM (inactive)
same,IC50,[5],61.9 µM (inactive)
COc1ccc2c3c([nH]c2c1)[C@@H](CO)N(C(=O)Nc1ccc(F)cc1)CC31CN(Cc2cc(F)ccc2F)C1,AC50,[7],18.8 µM (active)
CC(=O)c1ccc2c(c1)N(CCCN(C)C)c1ccccc1S2 [ACEPROMAZINE MALEATE],IC50,[8],> 66 µM (inactive)
same,IC50,[9],11.4 µM (inactive)
same,IC50,[10],> 66 µM (inactive)
